From patent publication US20250197372A1 (priority 2020, published 2025)

Key:
Assay type in all cases: biochemical
[1] = target: T1, recombinant alpha-glucosidase II (murine full-length glucosidase II, alpha and beta subunits, Glu 2) (Mus musculus, UniProt Q8BHN3); assay: Alpha-glucosidase II assay (4-methylumbelliferyl-alpha-D-pyranoside substrate, fluorescence); details: Glucosidase 2; read-out: Glu2 IC50
T1 construct: made in house; host or cells: HEK-293T cells transduced with BacMam viruses (75% alpha, 25% beta); protein harvested from culture supernatant
T1 sequence (O08795 15-521): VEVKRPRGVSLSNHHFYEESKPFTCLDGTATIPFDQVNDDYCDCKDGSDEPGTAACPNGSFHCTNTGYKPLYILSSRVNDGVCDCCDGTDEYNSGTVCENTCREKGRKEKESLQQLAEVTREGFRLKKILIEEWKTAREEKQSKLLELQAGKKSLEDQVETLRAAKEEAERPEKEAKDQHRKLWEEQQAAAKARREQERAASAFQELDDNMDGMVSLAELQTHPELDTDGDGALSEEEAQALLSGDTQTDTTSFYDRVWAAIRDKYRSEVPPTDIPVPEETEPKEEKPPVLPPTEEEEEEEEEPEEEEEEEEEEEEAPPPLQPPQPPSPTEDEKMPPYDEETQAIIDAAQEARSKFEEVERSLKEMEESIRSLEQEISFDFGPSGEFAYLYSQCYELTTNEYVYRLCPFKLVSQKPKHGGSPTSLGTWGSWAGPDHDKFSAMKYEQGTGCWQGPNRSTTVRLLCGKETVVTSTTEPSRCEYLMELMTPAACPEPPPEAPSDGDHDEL
T1 sequence (Q8BHN3 33-944): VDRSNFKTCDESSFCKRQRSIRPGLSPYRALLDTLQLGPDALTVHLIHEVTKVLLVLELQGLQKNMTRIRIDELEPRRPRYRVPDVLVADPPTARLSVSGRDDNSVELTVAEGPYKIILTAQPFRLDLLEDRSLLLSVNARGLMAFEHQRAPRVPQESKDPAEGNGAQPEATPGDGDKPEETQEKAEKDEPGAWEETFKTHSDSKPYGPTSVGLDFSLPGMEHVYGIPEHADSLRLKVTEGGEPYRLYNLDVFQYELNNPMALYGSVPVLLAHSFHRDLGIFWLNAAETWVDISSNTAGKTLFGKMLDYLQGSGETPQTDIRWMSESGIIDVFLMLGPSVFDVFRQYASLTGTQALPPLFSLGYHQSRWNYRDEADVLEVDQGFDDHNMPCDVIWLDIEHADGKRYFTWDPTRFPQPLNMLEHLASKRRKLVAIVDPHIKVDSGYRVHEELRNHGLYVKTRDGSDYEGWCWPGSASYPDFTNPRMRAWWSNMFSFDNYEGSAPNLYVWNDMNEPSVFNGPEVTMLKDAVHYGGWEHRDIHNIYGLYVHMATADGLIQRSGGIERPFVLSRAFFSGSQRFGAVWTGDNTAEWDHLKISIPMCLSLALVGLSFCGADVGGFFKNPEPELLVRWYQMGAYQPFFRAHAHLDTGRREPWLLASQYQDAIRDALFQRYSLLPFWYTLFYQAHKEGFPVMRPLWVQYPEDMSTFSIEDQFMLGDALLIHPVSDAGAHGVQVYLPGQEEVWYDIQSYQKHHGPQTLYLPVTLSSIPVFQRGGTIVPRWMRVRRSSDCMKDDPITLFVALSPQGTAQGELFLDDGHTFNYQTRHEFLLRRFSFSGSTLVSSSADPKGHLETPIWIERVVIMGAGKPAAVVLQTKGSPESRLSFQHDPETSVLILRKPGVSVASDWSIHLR

[2] = target: recombinant human GAA (acid alpha-glucosidase) (Homo sapiens, UniProt P10253); assay: Acid alpha-glucosidase (GAA) assay (4-methylumbelliferyl-alpha-D-pyranoside substrate, fluorescence)
In short: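 IC50 from 4-PL curve fit of percent inhibition, based on fluorescence (365/440 nm) of released methylumbelliferone relative to uninhibited enzyme. Compound dilutions and human GAA incubated 60 min, 37 °C, before 20 min substrate reaction at 37 °C, quenched at pH 10.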

[3] = target: rat maltase (partially purified alpha-glucosidase from intestinal rat powder); assay: Intestinal alpha-glucosidase assay, maltose substrate (Glucose GO Kit)
In short: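 Partially purified alpha-glucosidase from rat intestinal powder was preincubated 60 min at 37 °C with serial compound dilutions, then given maltose or sucrose and incubated 30 min at 37 °C.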

[4] = target: rat sucrase (partially purified alpha-glucosidase from intestinal rat powder) (Rattus norvegicus, UniProt P23739); assay: Intestinal alpha-glucosidase assay, sucrose substrate (Glucose GO Kit)
Sequence of rat sucrase (partially purified alpha-glucosidase from intestinal rat powder) (P23739 whole entry): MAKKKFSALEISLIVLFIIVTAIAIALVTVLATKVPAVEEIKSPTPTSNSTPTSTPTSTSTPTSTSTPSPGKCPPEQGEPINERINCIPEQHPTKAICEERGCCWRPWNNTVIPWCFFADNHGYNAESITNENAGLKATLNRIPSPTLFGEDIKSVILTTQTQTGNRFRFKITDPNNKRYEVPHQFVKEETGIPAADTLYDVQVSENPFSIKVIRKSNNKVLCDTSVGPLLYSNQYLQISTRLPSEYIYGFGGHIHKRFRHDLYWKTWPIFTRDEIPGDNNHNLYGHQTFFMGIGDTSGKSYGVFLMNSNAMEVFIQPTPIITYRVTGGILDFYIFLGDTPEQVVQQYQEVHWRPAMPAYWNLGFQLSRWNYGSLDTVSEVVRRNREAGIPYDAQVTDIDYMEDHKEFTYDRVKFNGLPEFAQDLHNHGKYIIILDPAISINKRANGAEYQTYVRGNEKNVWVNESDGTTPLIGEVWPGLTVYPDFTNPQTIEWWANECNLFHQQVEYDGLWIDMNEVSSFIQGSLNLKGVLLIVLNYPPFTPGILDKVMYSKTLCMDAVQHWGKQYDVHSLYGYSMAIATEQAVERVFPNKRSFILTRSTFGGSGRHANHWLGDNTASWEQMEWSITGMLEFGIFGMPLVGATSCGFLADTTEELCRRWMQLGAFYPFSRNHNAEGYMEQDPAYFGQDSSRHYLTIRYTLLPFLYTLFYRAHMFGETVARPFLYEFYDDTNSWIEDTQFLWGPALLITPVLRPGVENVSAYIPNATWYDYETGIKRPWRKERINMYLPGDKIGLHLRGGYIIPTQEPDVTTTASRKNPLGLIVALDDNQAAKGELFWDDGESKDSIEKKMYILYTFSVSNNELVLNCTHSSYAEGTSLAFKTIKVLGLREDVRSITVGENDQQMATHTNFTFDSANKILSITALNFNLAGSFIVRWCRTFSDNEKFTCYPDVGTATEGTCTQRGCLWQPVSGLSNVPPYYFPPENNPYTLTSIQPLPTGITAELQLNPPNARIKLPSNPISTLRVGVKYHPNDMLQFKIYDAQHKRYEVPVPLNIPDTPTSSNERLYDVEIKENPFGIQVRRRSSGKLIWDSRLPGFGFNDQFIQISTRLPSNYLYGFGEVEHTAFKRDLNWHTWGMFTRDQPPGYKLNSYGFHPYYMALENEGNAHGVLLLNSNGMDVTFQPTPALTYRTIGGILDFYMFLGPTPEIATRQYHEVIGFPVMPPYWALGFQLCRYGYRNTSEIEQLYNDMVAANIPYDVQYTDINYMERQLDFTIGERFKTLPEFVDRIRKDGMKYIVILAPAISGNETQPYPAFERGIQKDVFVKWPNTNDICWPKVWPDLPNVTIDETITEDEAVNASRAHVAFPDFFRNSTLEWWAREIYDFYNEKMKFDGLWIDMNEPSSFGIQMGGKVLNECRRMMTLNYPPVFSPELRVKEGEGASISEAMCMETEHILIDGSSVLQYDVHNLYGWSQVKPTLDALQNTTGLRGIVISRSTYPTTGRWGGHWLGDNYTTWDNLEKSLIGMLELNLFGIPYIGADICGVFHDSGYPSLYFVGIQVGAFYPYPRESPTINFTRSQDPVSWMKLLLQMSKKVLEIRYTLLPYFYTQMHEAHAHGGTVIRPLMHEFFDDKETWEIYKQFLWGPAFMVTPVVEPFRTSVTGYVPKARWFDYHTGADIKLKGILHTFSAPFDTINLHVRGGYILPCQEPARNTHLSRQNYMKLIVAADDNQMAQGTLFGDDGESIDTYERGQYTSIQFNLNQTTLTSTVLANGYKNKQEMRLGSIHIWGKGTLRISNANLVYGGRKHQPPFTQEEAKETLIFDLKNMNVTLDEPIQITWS
In short: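 First step: 60 min, 37 °C, compound with partially purified rat intestinal alpha-glucosidase. Next, maltose or sucrose for 30 min at 37 °C, ended at 90 °C for 5 min. Glucose quantified enzymatically; concentration–inhibition data fitted 4-PL for IC50.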

Compound	IC50 [1]	IC50 [2]	IC50 [3]	IC50 [4]
Cc1cc(NCc2cnc(CN3C[C@H](O)[C@@H](O)[C@H](O)[C@H]3CO)cn2)cc(N2CCOCC2)c1 [Compound 1332, (2R,3R,4R,5S)-2-(hydroxymethyl)-1-{[5-({[3-methyl-5-(morpholin-4-yl)phenyl]amino}methyl)pyrazin-2-yl]methyl}piperidine-3,4,5-triol]	> 100000 nM	165 nM	573 nM	3500 nM
CC#Cc1ccc(NCCCCCCN2C[C@H](O)[C@@H](O)[C@H](O)[C@H]2CO)c([N+](=O)[O-])c1 [Compound 1290, (2R,3R,4R,5S)-2-(hydroxymethyl)-1-(6-{[2-nitro-4-(prop-1-yn-1-yl)phenyl]amino}hexyl)piperidine-3,4,5-triol]	1.2 nM	21 nM	< 10 nM	< 10 nM
COc1ccc(CCCCCCCN2C[C@H](O)[C@@H](O)[C@H](O)[C@H]2CO)cc1 [Compound 1309, (2R,3R,4R,5S)-2-(hydroxymethyl)-1-[7-(4-methoxyphenyl)heptyl]piperidine-3,4,5-triol]	37 nM	263 nM	22 nM	155 nM
[N-]=[N+]=Nc1ccc(NCCN2CC(OCCN3C[C@H](O)[C@@H](O)[C@H](O)[C@H]3CO)C2)c([N+](=O)[O-])c1 [Compound 1271, (2R,3R,4R,5S)-1-{2-[(1-{2-[(4-azido-2-nitrophenyl)amino]ethyl}azetidin-3-yl)oxy]ethyl}-2-(hydroxymethyl)piperidine-3,4,5-triol]	539 nM	1360 nM	33 nM	266 nM
CN(C)Cc1ccc(NCCCCCCN2C[C@H](O)[C@@H](O)[C@H](O)[C@H]2CO)c(C(F)(F)F)c1 [Compound 1259, (2R,3R,4R,5S)-1-[6-({4-[(dimethylamino)methyl]-2-(trifluoromethyl)phenyl}amino)hexyl]-2-(hydroxymethyl)piperidine-3,4,5-triol]	72 nM	238 nM	20 nM	417 nM
CN(C)Cc1ccc(NCCCCCCN2C[C@H](O)[C@@H](O)[C@H](O)[C@H]2CO)c(C(=O)O)c1 [Compound 1245, 5-[(dimethylamino)methyl]-2-({6-[(2R,3R,4R,5S)-3,4,5-trihydroxy-2-(hydroxymethyl)piperidin-1-yl]hexyl}amino)benzoic acid]	51 nM	392 nM	32 nM	120 nM
CS(=O)(=O)c1cc(NCc2cccc(CN3C[C@H](O)[C@@H](O)[C@H](O)[C@H]3CO)c2)cc(N2CCOCC2)c1 [Compound 1036, (2R,3R,4R,5S)-2-(hydroxymethyl)-1-{[3-({[3-methanesulfonyl-5-(morpholin-4-yl)phenyl]amino}methyl)phenyl]methyl}piperidine-3,4,5-triol]	49500 nM	2760 nM	77 nM	219 nM
Cc1cc(Br)cc(NCc2ccc(CN3C[C@H](O)[C@@H](O)[C@H](O)[C@H]3CO)cc2)c1 [Compound 1024, (2R,3R,4R,5S)-1-[(4-{[(3-bromo-5-methylphenyl)amino]methyl}phenyl)methyl]-2-(hydroxymethyl)piperidine-3,4,5-triol]	–	221 nM	2 nM	14 nM
Cc1cc(NCc2cccc(CN3C[C@H](O)[C@@H](O)[C@H](O)[C@H]3CO)n2)cc(N2CCOCC2)c1 [Compound 1336, (2R,3R,4R,5S)-2-(hydroxymethyl)-1-{[6-({[3-methyl-5-(morpholin-4-yl)phenyl]amino}methyl)pyridin-2-yl]methyl}piperidine-3,4,5-triol]	> 100000 nM	10400 nM	9990 nM	21300 nM
Cc1cc(NCc2cccc(CN3C[C@H](O)[C@@H](O)[C@H](O)[C@H]3CO)c2)cc(-c2ccc[nH]2)c1 [Compound 1033, (2R,3R,4R,5S)-2-(hydroxymethyl)-1-{[3-({[3-methyl-5-(1H-pyrrol-2-yl)phenyl]amino}methyl)phenyl]methyl}piperidine-3,4,5-triol]	> 100000 nM	5370 nM	37 nM	34 nM
Nc1ccc(NCCc2ccccc2CCN2C[C@H](O)[C@@H](O)[C@H](O)[C@H]2CO)c([N+](=O)[O-])c1Cl [Compound 1239, (2R,3R,4R,5S)-1-[2-(2-{2-[(4-amino-3-chloro-2-nitrophenyl)amino]ethyl}phenyl)ethyl]-2-(hydroxymethyl)piperidine-3,4,5-triol]	108 nM	1240 nM	< 1 nM	294 nM
N#CCc1ccc(NCCCCCCN2C[C@H](O)[C@@H](O)[C@H](O)[C@H]2CO)c([N+](=O)[O-])c1 [Compound 1299, 2-[3-nitro-4-({6-[(2R,3R,4R,5S)-3,4,5-trihydroxy-2-(hydroxymethyl)piperidin-1-yl]hexyl}amino)phenyl]acetonitrile]	17 nM	32 nM	5 nM	37 nM
CS(C)=NS(=O)(=O)c1cc(-c2ncccn2)ccc1NCCCCCCN1C[C@H](O)[C@@H](O)[C@H](O)[C@H]1CO [Compound 1247, N-(dimethyl-2-sulfanylidene)-5-(pyrimidin-2-yl)-2-({6-[(2R,3R,4R,5S)-3,4,5-trihydroxy-2-(hydroxymethyl)piperidin-1-yl]hexyl}amino)benzene-1-sulfonamide]	6 nM	53 nM	18 nM	216 nM
Cc1cc(NCc2cccc(CN3C[C@H](O)[C@@H](O)[C@H](O)[C@H]3CO)n2)cc(-c2ncccn2)c1 [Compound 1322, (2R,3R,4R,5S)-2-(hydroxymethyl)-1-{[6-({[3-methyl-5-(pyrimidin-2-yl)phenyl]amino}methyl)pyridin-2-yl]methyl}piperidine-3,4,5-triol]	32400 nM	1110 nM	388 nM	481 nM
Cc1cc(NCc2ccc(CN3C[C@H](O)[C@@H](O)[C@H](O)[C@H]3CO)cc2)cc(-n2nccn2)c1 [Compound 1316, (2R,3R,4R,5S)-2-(hydroxymethyl)-1-{[4-({[3-methyl-5-(2H-1,2,3-triazol-2-yl)phenyl]amino}methyl)phenyl]methyl}piperidine-3,4,5-triol]	194 nM	94 nM	6 nM	14 nM
[N-]=[N+]=Nc1ccc(NCCC(O)C(O)CCN2C[C@H](O)[C@@H](O)[C@H](O)[C@H]2CO)c([N+](=O)[O-])c1 (stereo partly drawn) [Compound 1270, (2R,3R,4R,5S)-1-{6-[(4-azido-2-nitrophenyl)amino]-3,4-dihydroxy-hexyl}-2-(hydroxymethyl)piperidine-3,4,5-triol]	46 nM	190 nM	57 nM	350 nM
CS(=O)(=O)c1cc(Br)cc(NCc2ccc(CN3C[C@H](O)[C@@H](O)[C@H](O)[C@H]3CO)cc2)c1 [Compound 1025, (2R,3R,4R,5S)-1-[(4-{[(3-bromo-5-methanesulfonylphenyl)amino]methyl}phenyl)methyl]-2-(hydroxymethyl)piperidine-3,4,5-triol]	229 nM	135 nM	4 nM	2 nM
OC[C@@H]1[C@@H](O)[C@H](O)[C@@H](O)CN1Cc1cnc(CNc2cc(-c3ncccn3)cc(C3CC3)c2)cn1 [Compound 1329, (2R,3R,4R,5S)-1-{[5-({[3-cyclopropyl-5-(pyrimidin-2-yl)phenyl]amino}methyl)pyrazin-2-yl]methyl}-2-(hydroxymethyl)piperidine-3,4,5-triol]	2550 nM	50 nM	548 nM	675 nM
OC[C@@H]1[C@@H](O)[C@H](O)[C@@H](O)CN1Cc1cccc(CNc2ccc(Br)cc2)c1 [Compound 1027, (2R,3R,4R,5S)-1-[(3-{[(4-bromophenyl)amino]methyl}phenyl)methyl]-2-(hydroxymethyl)piperidine-3,4,5-triol]	23600 nM	2830 nM	81 nM	23 nM
Cc1nc(=O)c2cc(-c3ncccn3)ccc2n1CCCCCCN1C[C@H](O)[C@@H](O)[C@H](O)[C@H]1CO [Compound 1246, 2-methyl-6-(pyrimidin-2-yl)-1-{6-[(2R,3R,4R,5S)-3,4,5-trihydroxy-2-(hydroxymethyl)piperidin-1-yl]hexyl}-1,4-dihydroquinazolin-4-one]	4 nM	46 nM	> 100000 nM	> 100000 nM
[N-]=[N+]=Nc1ccc(NCCOCCN2C[C@H](O)[C@@H](O)[C@H](O)[C@H]2CO)c([N+](=O)[O-])c1 [Compound 1255, (2R,3R,4R,5S)-1-(2-{2-[(4-azido-2-nitrophenyl)amino]ethoxy}ethyl)-2-(hydroxymethyl)piperidine-3,4,5-triol]	29 nM	228 nM	33 nM	56 nM
CN(Cc1cccc(CN2C[C@H](O)[C@@H](O)[C@H](O)[C@H]2CO)c1)c1ccc(CN2CCCO2)cc1[N+](=O)[O-] [Compound 1020]	–	1160 nM	44 nM	129 nM
